Measured values: patent US20230031406A1, “COMPOUNDS AND COMPOSITIONS FOR TREATING CONDITIONS ASSOCIATED WITH NLRP ACTIVITY” (Novartis AG, priority 2018, published 2023)
pIC50: −log10 of the molar value. Read-outs that look alike come from different tables or passages of the source. Values belong to the compound of their own block, whether it stands above or below them.

System: PMA-differentiated THP-1 cells
Assay: IL-1β production in PMA-differentiated THP-1 cells stimulated with gramicidin (hTHP-1 assay containing 2% fetal bovine serum; Procedures 1 and 2)
Type: cell-based, human
Settings: 2% fetal bovine serum
Summary of the method: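 THP-1 cells were differentiated with PMA (20 ng/ml, 16-18 h), detached, and plated at 50,000 cells/well in RPMI 1640 with 2% FBS. They were pre-treated with compound (0.0017–100 μM, 0.37% DMSO) for 1 h, then stimulated with gramicidin (5 μM) for 2 h. Supernatant IL-1β was measured by HTRF.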

[1] = Table B1, class symbols, read-out: Average IC50 of compounds in hTHP-1 assay: hTHP-1 IC50
[2] = Homo sapiens, THP-1, Table B2, numeric bounds, read-out: hTHP-1 IC50
[3] = Table B2, class symbols, read-out: hTHP-1 IC50
[4] = Homo sapiens, THP-1, Table B1, class symbols, read-out: Average IC50 of compounds in hTHP-1 assay: hTHP-1 IC50
[5] = Homo sapiens, THP-1, Table B3, hTHP-1 assay, class symbols, read-out: IC50
[6] = Homo sapiens, THP-1, Table B2, class symbols, read-out: hTHP-1 IC50

Structure (SMILES): CC1CCc2c1nc1c(c2NC(=O)N=S(N)(=O)c2ccc(CN(C)C)cc2)CCC1 (stereo not shown) [Compound 134, 4-((dimethylamino)methyl)-N′-((3-methyl-1,2,3,5,6,7-hexahydrodicyclopenta[b,e]pyridin-8-yl)carbamoyl)benzenesulfon-imidamide]
pIC50 [1]: 5.30 to 6.00

Structure (SMILES): CCn1cc(F)c(S(N)(=O)=NC(=O)Nc2c3c(nc(C(F)(F)F)c2C2CC2)CCC3)n1 (stereo not shown) [Example 744, N′-((3-cyclopropyl-2-(trifluoromethyl)-6,7-dihydro-5H-cyclopenta[b]pyridin-4-yl)carbamoyl)-1-ethyl-4-fluoro-1H-pyrazole-3-sulfonimidamide]
pIC50 (Homo sapiens, THP-1, Table B4, class symbols, read-out: hTHP-1 IC50): 6.70 to 7.40

Structure (SMILES): CCC1CCc2c1nc1c(c2NC(=O)N=S(N)(=O)c2sc(C(C)(C)O)cc2F)CCC1 (stereo not shown) [Compound 671, N′-((3-ethyl-1,2,3,5,6,7-hexahydrodicyclopenta[b,e]pyridin-8-yl)carbamoyl)-3-fluoro-5-(2-hydroxypropan-2-yl)thiophene-2-sulfonimidamide]
pIC50 [3]: 5.30 to 6.00

Structure (SMILES): Cc1c(C(F)(F)F)nc2c(c1NC(=O)N=S(N)(=O)c1nn(C(C)C)cc1F)CCC2 (single isomer, unassigned) [Example 790, (S) or (R)-4-fluoro-1-isopropyl-N′-((3-methyl-2-(trifluoromethyl)-6,7-dihydro-5H-cyclo-penta [b]pyridin-4-yl)carbamoyl)-1H-pyrazole-3-sulfonimidamide]
pIC50 (Table B4, class symbols, read-out: hTHP-1 IC50): 4.52 to 5.30

Structure (SMILES): CCc1c(C)nc2c(c1NC(=O)N=S(N)(=O)c1cnc(C(C)(C)O)s1)CCC2 (stereo not shown) [Compound 117, N′-((3-ethyl-2-methyl-6,7-dihydro-5H-cyclopenta[b]pyridin-4-yl)carbamoyl)-2-(2-hydroxypropan-2-yl)thiazole-5-sulfonimidamide]
pIC50 [4]: 4.52 to 5.30

Structure (SMILES): CN(C)Cc1ccc(S(N)(=O)=NC(=O)Nc2c3c(nc4c2CCC4(C)C)CCC3)cc1 (stereo not shown) [Compound 125, N′-((3,3-dimethyl-1,2,3,5,6,7-hexahydrodicyclopenta[b,e]pyridin-8-yl)carbamoyl)-4-((dimethylamino)methyl)benzenesulfonimidamide]
pIC50 [4]: 5.30 to 6.00

Structure (SMILES): C[C@H](O)c1csc([S@@](N)(=O)=NC(=O)Nc2c3c(nc4c2CC[C@H]4C)CCC3)c1 (single isomer, unassigned) [Example 662, (S)-4-((S) or (R)-1-hydroxyethyl)-N′-(((R)-3-methyl-1,2,3,5,6,7-hexahydrodicyclopenta[b,e]pyridin-8-yl)carbamoyl)thiophene-2-sulfonimidamide]
pIC50 [5]: 4.52 to 5.30

Structure (SMILES): Cc1c(C2(F)CC2)nc2c(c1NC(=O)N=S(N)(=O)c1sc(C(C)(C)O)cc1F)CCC2 (single isomer, unassigned) [Example 686, (S) or (R)-3-fluoro-N′-((2-(1-fluorocyclopropyl)-3-methyl-6,7-dihydro-5H-cyclopenta[b]pyridin-4-yl)carbamoyl)-5-(2-hydroxypropan-2-yl) thiophene-2-sulfonimidamide]
pIC50 (Homo sapiens, THP-1, Table B3, hTHP-1 assay, numeric values, read-out: IC50): < 4.52

Structure (SMILES): Cc1c(C2(C)CC2)nc2c(c1NC(=O)N=S(N)(=O)c1cc(C(C)(C)O)cs1)CCC2 (stereo not shown) [Compound 669, 4-(2-Hydroxypropan-2-yl)-N′-((3-methyl-2-(1-methylcyclopropyl)-6,7-dihydro-5H-cyclopenta[b]pyridin-4-yl)carbamoyl)thiophene-2-sulfonimidamide]
pIC50 [6]: 4.52 to 5.30

Structure (SMILES): CCn1cc(F)c(S(N)(=O)=NC(=O)Nc2c(C)c(C3CC3)nc3c2CCC3)n1 (stereo not shown) [Example 637, N′-((2-cyclopropyl-3-methyl-6,7-dihydro-5H-cyclopenta[b]pyridin-4-yl)carbamoyl)-1-ethyl-4-fluoro-1H-pyrazole-3-sulfonimidamide]
pIC50 [5]: 6.00 to 6.70

Structure (SMILES): Cc1c(C2CC2)nc2c(c1NC(=O)N=S(N)(=O)c1cnn3c1OCCC3)CCC2 (stereo not shown) [Compound 306, N′-((2-cyclopropyl-3-methyl-6,7-dihydro-5H-cyclopenta[b]pyridin-4-yl)carbamoyl)-6,7-dihydro-5H-pyrazolo[5,1-b][1,3]oxazine-3-sulfonimidamide]
pIC50 [6]: 4.52 to 5.30

Structure (SMILES): COCc1nc(C(C)(C)O)sc1S(N)(=O)=NC(=O)Nc1c2c(nc3c1CCC3(C)C)CCC2 (stereo not shown) [Compound 170, N′-((3,3-dimethyl-1,2,3,5,6,7-hexahydrodicyclopenta[b,e]pyridin-8-yl)carbamoyl)-2-(2-hydroxypropan-2-yl)-4-(methoxymethyl)thiazole-5-sulfonimidamide]
pIC50 [4]: 5.30 to 6.00

Structure (SMILES): Cc1c(C(F)(F)F)nc2c(c1NC(=O)N=S(N)(=O)c1cnn3c1OCCC3)CCC2 (stereo not shown) [Example 565, N′-((3-methyl-2-(trifluoromethyl)-6,7-dihydro-5H-cyclopenta [b]pyridin-4-yl)carbamoyl)-6,7-dihydro-5H-pyrazolo[5,1-b][1,3]oxazine-3-sulfonimidamide]
pIC50 [5]: 4.52 to 5.30

Structure (SMILES): Cc1c(C(F)(F)F)nc2c(c1NC(=O)N=S(N)(=O)c1cnc(C(C)(C)O)s1)CCC2C (single isomer, unassigned) [Example 706, (R, R) or (R, S)-N′-((3,7-dimethyl-2-(trifluoromethyl)-6,7-dihydro-5H-cyclopenta[b]pyridin-4-yl)carbamoyl)-2-(2-hydroxypropan-2-yl)thiazole-5-sulfonimidamide]
pIC50 (Table B3, hTHP-1 assay, class symbols, read-out: IC50): 6.00 to 6.70

Structure (SMILES): Cc1nc2c(c(NC(=O)N=S(N)(=O)c3ncc(C(C)(C)O)s3)c1C1CC1)CCC2 (stereo not shown) [Compound 618, N′-((3-cyclopropyl-2-methyl-6,7-dihydro-5H-cyclopenta[b]pyridin-4-yl)carbamoyl)-5-(2-hydroxypropan-2-yl)thiazole-2-sulfonimidamide]
pIC50 [6]: 5.30 to 6.00

Now from value to compound:

pIC50 [2]: < 4.52
Structure (SMILES): Cc1c(C2CCC2)nc2c(c1NC(=O)N=S(N)(=O)c1cnc(C(C)(C)O)s1)CCC2 (single isomer, unassigned) [Compound 649b, (S) or (R)-N′-((2-cyclobutyl-3-methyl-6,7-dihydro-5H-cyclopenta[b]pyridin-4-yl)carbamoyl)-2-(2-hydroxypropan-2-yl)thiazole-5-sulfonimidamide]

pIC50 [3]: 4.52 to 5.30
Structure (SMILES): CC1(C)CCc2c1nc1c(c2NC(=O)N=S(N)(=O)c2cnc(C(C)(O)CO)s2)CCC1 (single isomer, unassigned) [Compound 201c, (S, S) or (R, S) or (S, R) or (R. R)-2-(1,2-Dihydroxypropan-2-yl)-N′-((3,3-dimethyl-1,2,3,5,6,7-hexahydrodicyclopenta [b,e]pvridin-8-yl)carbamoyl) thiazole-5-sulfonimidamide]

pIC50 [3]: 5.30 to 6.00
Structure (SMILES): CC(C)c1nc(CO)c(S(N)(=O)=NC(=O)Nc2c3c(nc4c2CCC4(C)C)CCC3)s1 (single isomer, unassigned) [Compound 680b, (R) or (S)-N′-((3,3-dimethyl-1,2,3,5,6,7-hexahydrodicyclopenta [b,e]pyridin-8-yl)carbamoyl)-4-(hydroxymethyl)-2-isopropylthiazole-5-sulfonimidamide]

pIC50 [2]: < 4.52
Structure (SMILES): CC(C)(O)c1cc(C#N)cc(S(N)(=O)=NC(=O)Nc2c3c(nc4c2CCC4(C)C)CCC3)c1 (single isomer, unassigned) [Compound 674a, (S) or (R)-3-Cyano-N′-((3,3-methyl-1,2,3,5,6,7-hexahydrodicyclopenta [b,e]pyridin-8-yl)carbamoyl)-5-(2-hydroxypropan-2-yl)benzene-sulfonimidamide]

pIC50 [4]: 5.30 to 6.00
Structure (SMILES): CC1(C)Cc2nc3c(c(NC(=O)N=S(N)(=O)c4cnc(C(C)(C)O)s4)c2C1)CCC3 (single isomer, unassigned) [Compound 147b, (R) or (S)-N′-((2,2-dimethyl-1,2,3,5,6,7-hexahydro-dicyclopenta[b,e]pyridin-8-yl)carbamoyl)-2-(2-hydroxypropan-2-yl)thiazole-5-sulfonimidamide]

pIC50 [3]: 5.30 to 6.00
Structure (SMILES): CCc1nc2c(c(NC(=O)N=S(N)(=O)c3cc(C(C)(C)O)cs3)c1C1CC1)CCC2 (single isomer, unassigned) [Compound 654a, (S) or (R)-N′-((3-cyclopropyl-2-ethyl-6,7-dihydro-5H-cyclopenta[b]pyridin-4-yl)carbamoyl)-4-(2-hydroxypropan-2-yl)thiophene-2-sulfonimidamide]

pIC50 [6]: 6.00 to 6.70
Structure (SMILES): C[C@@H]1CCc2c1nc1c(c2NC(=O)N=S(N)(=O)c2ncc(C(C)(C)O)s2)CCC1 (stereo partly drawn) [Compound 140c, 5-(2-Hydroxypropan-2-yl)-N′-(((R)-3-methyl-1,2,3,5,6,7-hexahydrodicyclopenta[b,e]pyridin-8-yl)carbamoyl)thiazole-2-sulfonimidamide]

pIC50 [1]: 4.52 to 5.30
Structure (SMILES): CC1CCc2c1nc1c(c2NC(=O)N=S(N)(=O)c2ccn(C(F)F)n2)CCC1 (single isomer, unassigned) [Compound 184b, (S,S) or (S,R)-1-(difluoro-methyl)-N′-((3-methyl-1,2,3,5,67-hexahydro-dicyclopenta[b,e]pyridin-8-yl)carbamoyl)-1H-pyrazole-3-sulfonimidamide]

pIC50 [6]: 6.00 to 6.70
Structure (SMILES): CCn1ccc([S@](N)(=O)=NC(=O)Nc2c(C)c(C(F)(F)F)nc3c2CCC3)n1 [Compound 731b]

pIC50 [1]: 5.30 to 6.00
Structure (SMILES): CC(C)c1c(-c2ccccc2)nc2c(c1NC(=O)N=S(N)(=O)c1cnc(C(C)(C)O)s1)CCC2 (single isomer, unassigned) [Compound 145b, (S) or (R)-2-(2-hydroxy-propan-2-yl)-N′-((3-isopropyl-2-phenyl-6,7-dihydro-5H-cyclopenta[b]pyridin-4-yl)carbamoyl)thiazole-5-sulfonimidamide]
